In patent US20080293048A1, “METHODS AND KITS BASED ON UGT1A7 PROMOTER POLYMORPHISM” (priority 2004, published 2008):

What was measured:
UGT1A7 = molecular target: T1, UGT1A7 (Homo sapiens, UniProt Q9HAW7); conditions: stated as known; cited from earlier work
T1 construct: expressed in transfected cells; host or cells: HEK293
T1 sequence (Q9HAW7 26-530): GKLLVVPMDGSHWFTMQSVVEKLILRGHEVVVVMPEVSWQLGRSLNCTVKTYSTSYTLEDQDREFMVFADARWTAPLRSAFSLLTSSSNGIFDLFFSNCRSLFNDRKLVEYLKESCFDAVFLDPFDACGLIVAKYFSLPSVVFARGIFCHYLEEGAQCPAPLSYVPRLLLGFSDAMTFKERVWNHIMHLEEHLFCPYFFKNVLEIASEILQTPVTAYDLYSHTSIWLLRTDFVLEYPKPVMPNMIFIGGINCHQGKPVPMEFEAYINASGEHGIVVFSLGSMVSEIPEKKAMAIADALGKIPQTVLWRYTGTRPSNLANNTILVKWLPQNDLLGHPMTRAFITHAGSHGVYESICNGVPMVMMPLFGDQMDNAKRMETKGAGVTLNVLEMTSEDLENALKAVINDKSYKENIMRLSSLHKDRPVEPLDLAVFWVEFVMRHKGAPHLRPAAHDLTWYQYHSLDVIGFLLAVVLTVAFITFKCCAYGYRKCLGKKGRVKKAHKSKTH

[1] = background statement; cited from earlier work
[2] = tested on: patients with metastatic colorectal cancer; conditions: human, in vivo
Description: The aim of this study was to assess adverse events, dose reductions and clinical outcome. In both treatment arms 80 mg/m^2 of CPT-11 were administered intravenously over 30 minutes on day 1, 8, 15, 22, 29 and 36 and the cycle repeated after day 50. In arm A of the FIRE study FA (500 mg/m^2, 120 min. infusion) and 5-FU (2000 mg/m^2, 24 h infusion) were co-administered on days 1, 8, 15, 22, 29, 36, and in arm B oxaliplatin (85 mg/m^2, 120 min infusion) were co-administered on day 1, 15 and 29. At the beginning of each treatment cycle adverse events and clinical symptoms were documented. Patients with known Gilbert's disease were excluded from this study. The following adverse events were analyzed: diarrhea within 24 h and later than 24 after administration of CPT-11, loss of body weight more than 5%, anemia, thrombocytopenia, and leukopenia. The intensity of adverse events was classified according to the WHO-Adverse Reaction Terminology with scores from “0”—“no adverse events” to 4—“life-threatening adverse events”. If the CPT-11 dose had to be reduced to less than 80%, dose reduction was documented at each cycle. Genomic DNA from full blood of all patients was isolated as described before and genotyped after written informed consent was obtained. The study was approved by the local ethics committees.
All genotyping studies were performed in a blinded fashion without prior knowledge of the clinical data of the analyzed patient. Approximately 10 ng of genomic DNA were used as a template in Taqman 5′-nuclease assays. Primers and probes specific for each SNP were designed with Primer Express Software (Applied Biosystems) and labelled with either 6-FAM or VIC as reporter dyes and MGB-NFQ (Applied Biosystems) as a quencher as described in Lankisch et al., Mol. Pharmacol, 2005, 67(5); 1732-1739. The Taqman assays were performed using 600 nM primer concentrations and 200 nM probe concentrations (Applied Biosystems) and qPCR Mastermix Plus (Eurogentec, Seraing, Belgium). The run consisted of a hot start at 95° C. for 10 minutes and 35 cycles of 94° C. for 15 sec. and 61° C. for 1 min. All assays were performed in 25 μl reactions in 96-well trays using an ABI 7000 instrument (Applied Biosystems). UGT1A1*28 was determined by Oncoscreen, Jena, Germany.
Patients were classified according to the number of SNPs determined at the UGT1A1*28, UGT1A7 −57 T/G and UGT1A7 N129K/R131K gene loci. In the absence of allelic variants patients were classified as “low risk”, whereas high risk patients were defined if at least one allele of the allelic variant of each analyzed gene locus was present. If only one or two allelic variants were detected at the UGT1A1 or UGT1A7 gene locus, patients were classified as “intermediate risk”. […] Frequency and intensity of the adverse events were compared between the risk groups defined above by Cochran-Mantel-Haenszel statistics using modified ridit scores. The risk groups were also compared by multivariant analysis (non-parametric Weil-Lachin procedure) for differences in intensity of 5 adverse events simultaneously. […] This test leads to values between 0 and 1 with 0.5 characterizing equal chances, which would indicate no difference in the comparison of these patients. The analysis of incidence and intensity of adverse events was based on the documented 297 treatment cycles involving all 105 patients. The Chi-Square test was used for statistical analysis of CPT-11 dose reductions. P-values were not adjusted for multiple testing. All statistical analyses were calculated by an independent statistician who was not involved in patient treatment or genotyping (Estimate GmbH, Augsburg, Germany).

SMILES | specific activity of UGT1A7 with SN-38 compared with UGT1A1 (UGT1A7) | activity higher than irinotecan [1] | Leukopenia WHO Grade 1, % [2] [%] | Leukopenia WHO Grade 1, n treatment cycles [2] | Thrombocytopenia WHO Grade 2, % [2] [%] | Thrombocytopenia WHO Grade 2, n treatment cycles [2] | Thrombocytopenia WHO Grade 3, % [2] [%] | Thrombocytopenia WHO Grade 3, n treatment cycles [2] | diarrhea <24 h WHO Grade 3, % of treatment cycles [2] | diarrhea <24 h WHO Grade 3, N treatment cycles [2] | leukopenia WHO Grade 4, % of treatment cycles [2] [%] | leukopenia WHO Grade 4, N treatment cycles [2] | thrombocytopenia WHO Grade 2, % of treatment cycles [2] [%] | thrombocytopenia WHO Grade 2, N treatment cycles [2] | thrombocytopenia WHO Grade 3, % of treatment cycles [2] | thrombocytopenia WHO Grade 3, N treatment cycles [2] | overall incidence of adverse events, Mann Whitney test ([2]; 50 days) | Leukopenia WHO Grade 4, % ([2]; 50 days (one treatment cycle)) [%] | Leukopenia WHO Grade 4, n treatment cycles ([2]; 50 days (one treatment cycle))
CCc1c2c(nc3ccc(O)cc13)-c1cc3c(c(=O)n1C2)COC(=O)[C@]3(O)CC [SN-38, 7-ethyl-10-hydroxycamptothecin] | five-hold higher | 100-1000 fold |  |  |  |  |  |  |  |  |  |  |  |  |  |  |  |  | 
CCc1c2c(nc3ccc(OC(=O)N4CCC(N5CCCCC5)CC4)cc13)-c1cc3c(c(=O)n1C2)COC(=O)[C@]3(O)CC [irinotecan] |  |  | 21 | 10 | 3 | 5 | 1 | 1 | 1 (1%) | 1 (1%) | 1 | 2 | 3 | 5 | 1 (1%) | 1 (1%) | 0.5511 | 1 | 2
